The source made the active and inactive calls. No cut-off for these calls is given here.
Columns and labels:
[1] = test system: Radical scavenging activity; assay: Antioxidant activity assessed as DPPH radical scavenging activity at 6 ug; type: functional
Staphylococcus aureus [2] = assay: Antibacterial activity against Staphylococcus aureus ATCC 6538P assessed as inhibition zone diameter at 5 ug/disk after 24 hrs by agar diffusion method; type: functional, organism-based
Pseudomonas aeruginosa [3] = assay: microbe, parasite or virus in culture; settings: ATCC 9027, 24 h, read-out: IZ
Description: Antibacterial activity against Pseudomonas aeruginosa ATCC 9027 assessed as inhibition zone diameter at 5 ug/disk after 24 hrs by agar diffusion method

Klebsiella pneumoniae [4] = assay: microbe, parasite or virus in culture; settings: ATCC 10032, 24 h, read-out: IZ
Description: Antibacterial activity against Klebsiella pneumoniae ATCC 10032 assessed as inhibition zone diameter at 5 ug/disk after 24 hrs by agar diffusion method

Staphylococcus aureus [5] = assay: Antibacterial activity against Staphylococcus aureus ATCC 6538P assessed as inhibition zone diameter after 24 hrs by agar diffusion method; type: functional
Pseudomonas aeruginosa [6] = assay: Antibacterial activity against Pseudomonas aeruginosa ATCC 9027 assessed as inhibition zone diameter after 24 hrs by agar diffusion method; type: functional
Klebsiella pneumoniae [7] = assay: Antibacterial activity against Klebsiella pneumoniae ATCC 10032 assessed as inhibition zone diameter after 24 hrs by agar diffusion method; type: functional
Staphylococcus aureus [8] = assay: Antibacterial activity against Staphylococcus aureus ATCC 6538P assessed as inhibition zone diameter at 15 ug/disk after 24 hrs by agar diffusion method; type: functional; settings: read-out: IZ
Pseudomonas aeruginosa [9] = assay: Antibacterial activity against Pseudomonas aeruginosa ATCC 9027 assessed as inhibition zone diameter at 15 ug/disk after 24 hrs by agar diffusion method; type: functional, organism-based
Klebsiella pneumoniae [10] = assay: Antibacterial activity against Klebsiella pneumoniae ATCC 10032 assessed as inhibition zone diameter at 15 ug/disk after 24 hrs by agar diffusion method; type: functional, organism-based
Staphylococcus aureus [11] = assay: Antibacterial activity against Staphylococcus aureus ATCC 6538P assessed as inhibition zone diameter at 30 ug/disk after 24 hrs by agar diffusion method; type: functional; settings: read-out: IZ
Pseudomonas aeruginosa [12] = assay: Antibacterial activity against Pseudomonas aeruginosa ATCC 9027 assessed as inhibition zone diameter at 30 ug/disk after 24 hrs by agar diffusion method; type: functional; settings: ATCC 9027, 24 h, read-out: IZ
Klebsiella pneumoniae [13] = assay: Antibacterial activity against Klebsiella pneumoniae ATCC 10032 assessed as inhibition zone diameter at 30 ug/disk after 24 hrs by agar diffusion method; type: functional; settings: ATCC 10032, 24 h, read-out: IZ

| Compound | Activity (Pseudomonas aeruginosa [6]) | Activity (Klebsiella pneumoniae [7]) | inhibition zone (IZ) (Staphylococcus aureus [5]) [mm] | further results |
| --- | --- | --- | --- | --- |
| CCOC(=O)Cc1cc(Br)c(O)c(Br)c1O |  |  |  | Activity [1]: Active |
| O=C(O)c1cn(C2CC2)c2cc(N3CCNCC3)c(F)cc2c1=O [CIPROFLOXACIN] |  |  |  | Activity (Staphylococcus aureus [2]): inactive; zone of inhibition at 5 µg/disc (Pseudomonas aeruginosa [3]): 2 mm; zone of inhibition at 5 µg/disc (Klebsiella pneumoniae [4]): 8 mm |
| COC1=C(Br)[C@H](O)[C@@]2(C=C1Br)CC(C(=O)NCCCOc1c(Br)cc(CCNC(=O)C3=NO[C@]4(C=C(Br)C(OC)=C(Br)[C@@H]4O)C3)cc1Br)=NO2 | inactive | inactive |  | Activity (Staphylococcus aureus [5]): inactive |
| COC(=O)Cc1cc(Br)c(O)c(Br)c1O [SUBEREAPHENOL B] | inactive | inactive | 5 | Activity [1]: Active |
| COC1=C(Br)[C@H](O)[C@@]2(C=C1Br)CC(C(=O)NCCCCCNC(=O)C1=NO[C@]3(C=C(Br)C(OC)=C(Br)[C@@H]3O)C1)=NO2 [HOMOAEROTHIONIN] | inactive | inactive | 3 |  |
| CCOC(=O)NCCCCNC(=O)C1=NO[C@]2(C=C(Br)C(OC)=C(Br)[C@@H]2O)C1 [SUBEREAMOLLINE A] | inactive | inactive | 3 |  |
| COC1=C(Br)[C@H](O)[C@](O)(CC#N)C=C1Br |  |  | 9 | inhibition zone (IZ) (Pseudomonas aeruginosa [6]): 11 mm; inhibition zone (IZ) (Klebsiella pneumoniae [7]): 7 mm |
| CC[C@H]1OC(=O)[C@H](C)[C@@H](O[C@H]2C[C@@](C)(OC)[C@@H](O)[C@H](C)O2)[C@H](C)[C@@H](O[C@@H]2O[C@H](C)C[C@H](N(C)C)[C@H]2O)[C@](C)(O)C[C@@H](C)C(=O)[C@H](C)[C@@H](O)[C@]1(C)O [ERYTHROMYCIN] |  |  |  | zone of inhibition at 15 µg/disc (Staphylococcus aureus [8]): 8 mm; Activity (Pseudomonas aeruginosa [9]): inactive; Activity (Klebsiella pneumoniae [10]): inactive |
| COC1=C(Br)[C@H](O)[C@@]2(C=C1Br)CC(C(=O)NCCCCNC(=O)C1=NO[C@]3(C=C(Br)C(OC)=C(Br)[C@@H]3O)C1)=NO2 [AEROTHIONIN] | inactive |  | 5 | inhibition zone (IZ) (Klebsiella pneumoniae [7]): 3 mm |
| O=C(N[C@H](CO)[C@H](O)c1ccc([N+](=O)[O-])cc1)C(Cl)Cl [CHLORAMPHENICOL] |  |  |  | zone of inhibition at 30 µg/disc (Staphylococcus aureus [11]): 9 mm; zone of inhibition at 30 µg/disc (Pseudomonas aeruginosa [12]): 7 mm; zone of inhibition at 30 µg/disc (Klebsiella pneumoniae [13]): 10 mm |
| COC1=C(Br)[C@@H]2OC(=O)C[C@]2(O)C=C1Br | inactive | inactive | 5 |  |
